Assay results as given in BindingDB's records for doi:10.1021/cb4002552 (University of California, 2013).

Target: Neutrophil gelatinase-associated lipocalin (Homo sapiens, UniProt P80188)
Test: Fluorescence quenching titrations
Settings: pH 7.4
Experimental: The ligand solutions (10uM siderophore, TBS with 5% (v/v) DMSO, pH 7.4) were prepared from 4mM stock solution in DMSO. The protein solution was prepared as previously reported. Small amounts of ligand solution were mixed with the protein solution and equilibrated for at least 4 min before fluorescence measurement. The data was fit to a one-to-one binding model with two parameters, Kd and fluorescence response, using the program DYNAFIT.

Chain of Neutrophil gelatinase-associated lipocalin (P80188 whole entry): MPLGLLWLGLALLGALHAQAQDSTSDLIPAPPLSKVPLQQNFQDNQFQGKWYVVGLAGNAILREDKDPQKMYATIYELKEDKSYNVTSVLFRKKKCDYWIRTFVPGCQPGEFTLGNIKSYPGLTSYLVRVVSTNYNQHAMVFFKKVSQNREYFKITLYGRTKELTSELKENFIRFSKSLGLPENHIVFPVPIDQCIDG

Row | Kd | Compound
1 | 0.012 µM | C[C@@H](O)[C@H](NC(=O)c1cccc(O)c1O)C(=O)N(CCCNC(=O)c1cccc(O)c1O)CCCNC(=O)c1cccc(O)c1O [Fluvibactin A]
2 | 0.018 µM | C[C@@H](O)[C@H](NC(=O)c1cccc(O)c1O)C(=O)NCCCN(CCCNC(=O)c1cccc(O)c1O)C(=O)[C@@H](NC(=O)c1cccc(O)c1O)[C@@H](C)O [Vibriobactin A]

Row | Compound | Kd
3 | C[C@H]1OC(c2cccc(O)c2O)=N[C@@H]1C(=O)N(CCCNC(=O)c1cccc(O)c1O)CCCNC(=O)c1cccc(O)c1O [Fluvibactin] | 0.034 µM
